Measured values published in ChEMBL document CHEMBL1201862, “PubChem BioAssay data set” (2004).
Activity calls are given as the source filed them. Unless noted, the rule behind the calls is not given here.

Assays:
[1] = Anti-IgM induced B cell proliferation of mouse primary lymphocytes. [Related pubchem assays: 1266, 1299, 1269, 1373, 1292, 1290, 1302, 1371, 1283, 1270, 1295, 1271, 1375, 1294, 1287, 1374, 1281, 1293, 1291, 1289, 1280, 465, 1368, 1364, 1282, 1372, 1369, 1370, 1367, 1366 ]; assay type: functional, cell-based
[2] = target: Protein kinase C theta type (Homo sapiens, UniProt Q04759); experiment: In Vitro Kinase Assay Using Purified Enzyme PKC-theta. [Related pubchem assays: 1299, 1270, 1295, 1375, 1287, 1281, 1293, 1291, 1289, 1280, 465, 1364, 1282, 1372, 1365, 1370, 1367, 1366, 1266, 1269, 1373, 1292, 1290, 1302, 1371, 1271, 1294, 1374, 1368, 1369 ]
Protein kinase C theta type, sequence (Q04759 whole entry): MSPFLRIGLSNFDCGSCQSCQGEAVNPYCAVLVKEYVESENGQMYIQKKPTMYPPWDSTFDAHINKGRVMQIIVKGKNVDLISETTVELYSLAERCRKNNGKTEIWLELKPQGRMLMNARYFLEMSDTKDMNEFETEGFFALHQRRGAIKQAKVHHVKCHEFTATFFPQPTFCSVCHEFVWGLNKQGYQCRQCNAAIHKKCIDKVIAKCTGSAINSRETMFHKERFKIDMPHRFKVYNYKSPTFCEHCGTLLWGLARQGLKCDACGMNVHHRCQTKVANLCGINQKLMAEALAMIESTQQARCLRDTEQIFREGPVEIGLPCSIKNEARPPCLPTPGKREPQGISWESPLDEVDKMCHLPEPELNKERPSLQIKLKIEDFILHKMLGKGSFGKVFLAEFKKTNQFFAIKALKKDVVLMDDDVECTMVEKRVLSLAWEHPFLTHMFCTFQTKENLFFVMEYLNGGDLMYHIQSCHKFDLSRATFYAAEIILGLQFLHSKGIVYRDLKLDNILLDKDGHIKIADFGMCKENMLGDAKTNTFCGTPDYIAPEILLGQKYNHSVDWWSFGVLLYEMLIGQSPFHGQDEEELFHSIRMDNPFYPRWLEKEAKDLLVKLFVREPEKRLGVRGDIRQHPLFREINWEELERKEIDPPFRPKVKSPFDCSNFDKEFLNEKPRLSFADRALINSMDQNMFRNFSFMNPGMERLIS

MCF7 [3] = experiment: Cytotoxicity assay in MCF7 cells. [Related pubchem assays (depositor defined):AID1266, AID1269, AID1270, AID1271, AID1280, AID1281, AID1282, AID1283, AID1287, AID1289, AID1290, AID1291, AID1292, AID1293, AID1294, AID1295, AID1299, AID1302, AID1364, AID1365, AID1366, AID1367, AID1368, AID1369, AID1370, AID1371, AID1372, AID1374, AID1375, AID1384 …; assay type: functional, cell-based; settings: Homo sapiens
[4] = target: Inhibitor of nuclear factor kappa-B kinase subunit beta (Homo sapiens, UniProt O14920); experiment: In Vitro Kinase Assay Using Purified Enzyme IKK-beta. [Related pubchem assays: 1266, 1299, 1269, 1373, 1292, 1290, 1302, 1371, 1283, 1270, 1295, 1271, 1375, 1294, 1287, 1374, 1281, 1293, 1291, 1289, 1280, 465, 1368, 1364, 1372, 1365, 1369, 1370, 1367, 1366 ]
Inhibitor of nuclear factor kappa-B kinase subunit beta, sequence (O14920 whole entry): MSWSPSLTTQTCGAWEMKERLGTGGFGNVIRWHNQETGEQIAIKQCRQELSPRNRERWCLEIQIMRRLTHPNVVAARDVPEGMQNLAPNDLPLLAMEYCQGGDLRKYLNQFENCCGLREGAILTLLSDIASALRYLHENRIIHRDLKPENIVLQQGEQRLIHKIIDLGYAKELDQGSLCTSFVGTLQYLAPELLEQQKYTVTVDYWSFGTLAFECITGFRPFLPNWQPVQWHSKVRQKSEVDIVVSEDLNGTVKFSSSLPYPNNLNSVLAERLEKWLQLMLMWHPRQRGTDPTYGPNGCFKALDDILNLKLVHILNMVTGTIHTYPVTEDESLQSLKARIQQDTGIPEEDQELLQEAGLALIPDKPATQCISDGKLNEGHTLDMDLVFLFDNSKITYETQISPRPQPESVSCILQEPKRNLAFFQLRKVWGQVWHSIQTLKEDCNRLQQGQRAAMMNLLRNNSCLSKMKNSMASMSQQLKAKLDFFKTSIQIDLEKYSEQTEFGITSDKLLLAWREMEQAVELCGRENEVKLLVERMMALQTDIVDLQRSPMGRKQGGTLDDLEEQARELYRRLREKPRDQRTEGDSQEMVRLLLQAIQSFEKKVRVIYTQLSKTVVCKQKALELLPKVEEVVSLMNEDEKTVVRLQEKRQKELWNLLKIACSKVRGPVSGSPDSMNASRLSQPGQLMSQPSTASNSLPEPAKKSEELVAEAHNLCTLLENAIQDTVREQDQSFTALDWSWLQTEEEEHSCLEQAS

HEK293 [5] = experiment: PMA/Ionomycin induced NF-kB luciferase assay in 293- NF-kB-Luc stable cells. [Related pubchem assays: 1299, 1270, 1295, 1375, 1287, 1281, 1293, 1291, 1289, 1280, 465, 1364, 1282, 1372, 1365, 1370, 1367, 1366, 1269, 1373, 1292, 1290, 1302, 1371, 1283, 1271, 1294, 1374, 1368, 1369 ]; assay type: functional, cell-based; settings: Homo sapiens
[6] = target: Luciferin 4-monooxygenase (Photinus pyralis, UniProt P08659); experiment: In vitro luciferase assay using purified luciferase. [Related pubchem assays: 1299, 1270, 1295, 1375, 1287, 1281, 1293, 1291, 1289, 1280, 465, 1364, 1282, 1372, 1365, 1370, 1367, 1366, 1266, 1373, 1292, 1290, 1302, 1371, 1283, 1271, 1294, 1374, 1368, 1369 ]
Luciferin 4-monooxygenase, sequence (P08659 whole entry): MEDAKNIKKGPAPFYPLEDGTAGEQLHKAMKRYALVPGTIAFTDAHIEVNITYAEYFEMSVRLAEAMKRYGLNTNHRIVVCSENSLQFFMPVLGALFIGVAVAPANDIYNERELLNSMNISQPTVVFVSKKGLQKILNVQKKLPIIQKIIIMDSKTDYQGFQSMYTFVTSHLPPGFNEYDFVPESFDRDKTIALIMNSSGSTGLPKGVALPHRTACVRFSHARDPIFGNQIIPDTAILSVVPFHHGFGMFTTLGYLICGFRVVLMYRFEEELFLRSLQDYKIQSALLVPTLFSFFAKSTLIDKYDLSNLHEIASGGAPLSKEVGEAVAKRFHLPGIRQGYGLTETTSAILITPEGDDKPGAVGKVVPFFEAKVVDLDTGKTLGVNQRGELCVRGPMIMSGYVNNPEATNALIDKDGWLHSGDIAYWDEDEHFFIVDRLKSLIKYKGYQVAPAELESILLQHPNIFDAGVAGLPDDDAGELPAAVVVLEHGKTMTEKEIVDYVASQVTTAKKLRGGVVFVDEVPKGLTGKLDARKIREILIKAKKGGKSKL

MCF7 [7] = experiment: GM-Tri-DAP induced IL-8 production in MCF-7/NOD1 cells. [Related pubchem assays (depositor defined):AID1266, AID1269, AID1270, AID1271, AID1280, AID1281, AID1282, AID1283, AID1287, AID1289, AID1290, AID1291, AID1292, AID1293, AID1294, AID1295, AID1299, AID1302, AID1364, AID1365, AID1366, AID1367, AID1368, AID1369, AID1371, AID1372, AID1373 …; assay type: functional, cell-based; settings: Homo sapiens
[8] = target: Protein kinase C beta type (Homo sapiens, UniProt P05771); experiment: In Vitro Kinase Assay Using Purified Enzyme PKC-beta. [Related pubchem assays: 1299, 1270, 1295, 1375, 1287, 1281, 1293, 1291, 1289, 465, 1364, 1282, 1372, 1365, 1370, 1367, 1366, 1266, 1269, 1373, 1292, 1290, 1302, 1371, 1283, 1271, 1294, 1374, 1368, 1369 ]
Protein kinase C beta type, sequence (P05771 whole entry): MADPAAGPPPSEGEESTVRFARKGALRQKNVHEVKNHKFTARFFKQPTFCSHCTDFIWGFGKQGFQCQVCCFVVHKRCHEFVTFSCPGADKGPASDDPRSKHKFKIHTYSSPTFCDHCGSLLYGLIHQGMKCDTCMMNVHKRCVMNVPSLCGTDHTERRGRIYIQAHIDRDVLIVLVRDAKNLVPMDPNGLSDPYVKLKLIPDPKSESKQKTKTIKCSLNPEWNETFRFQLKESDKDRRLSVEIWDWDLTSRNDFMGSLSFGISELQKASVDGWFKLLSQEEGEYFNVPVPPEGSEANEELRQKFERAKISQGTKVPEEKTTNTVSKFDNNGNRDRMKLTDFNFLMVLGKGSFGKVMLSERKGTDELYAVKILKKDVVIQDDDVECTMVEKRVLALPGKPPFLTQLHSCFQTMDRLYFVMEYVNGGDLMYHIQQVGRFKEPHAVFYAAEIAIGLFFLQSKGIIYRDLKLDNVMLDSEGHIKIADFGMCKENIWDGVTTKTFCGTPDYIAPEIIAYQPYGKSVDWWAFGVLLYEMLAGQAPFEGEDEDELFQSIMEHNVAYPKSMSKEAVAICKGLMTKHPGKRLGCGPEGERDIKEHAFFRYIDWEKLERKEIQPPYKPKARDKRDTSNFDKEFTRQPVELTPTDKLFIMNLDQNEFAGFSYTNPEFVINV

Jurkat [9] = experiment: IL-2 Production Assay in Jurkat T-cells Stimulated with anti-CD3/anti-CD28 antibodies. [Related pubchem assays: 1299, 1270, 1295, 1375, 1287, 1281, 1293, 1291, 1289, 1280, 465, 1364, 1282, 1372, 1365, 1370, 1367, 1366, 1266, 1269, 1373, 1292, 1290, 1302, 1371, 1283, 1294, 1374, 1368, 1369 ]; assay type: functional, cell-based; settings: Homo sapiens
MCF7 [10] = experiment: PMA/Ionomycin induced NF-kB luciferase in MCF7 cells. [Related pubchem assays (depositor defined):AID1266, AID1269, AID1270, AID1271, AID1280, AID1281, AID1282, AID1283, AID1287, AID1289, AID1290, AID1291, AID1292, AID1293, AID1294, AID1295, AID1299, AID1302, AID1364, AID1365, AID1367, AID1368, AID1369, AID1370, AID1371, AID1372, AID1373, AID1374 …; assay type: functional, cell-based; settings: Homo sapiens
HEK293 [11] = experiment: PMA/Ionomycin-induced IL-8 production in HEK293- NF-kB-Luc stable cells. [Related pubchem assays: 1299, 1295, 1375, 1287, 1281, 1293, 1291, 1289, 1280, 465, 1364, 1282, 1372, 1365, 1367, 1366, 1266, 1269, 1373, 1292, 1290, 1302, 1371, 1283, 1271, 1294, 1374, 1368, 1369 ]; assay type: functional, cell-based; settings: Homo sapiens
Jurkat [12] = experiment: Cytotoxicity assay in Jurkat T cells. [Related pubchem assays (depositor defined):AID1266, AID1269, AID1270, AID1271, AID1280, AID1281, AID1282, AID1283, AID1287, AID1289, AID1290, AID1291, AID1292, AID1293, AID1294, AID1295, AID1299, AID1302, AID1364, AID1365, AID1366, AID1368, AID1369, AID1370, AID1371, AID1372, AID1373, AID1374, AID1375 …; assay type: functional, cell-based; settings: Homo sapiens
PPC-1 = experiment: PMA/Ionomycin induced NF-kB luciferase in PPC-1 cells. [Related pubchem assays (depositor defined):AID1266, AID1269, AID1270, AID1271, AID1280, AID1281, AID1282, AID1283, AID1287, AID1289, AID1290, AID1291, AID1292, AID1293, AID1294, AID1295, AID1299, AID1302, AID1364, AID1365, AID1366, AID1367, AID1368, AID1369, AID1370, AID1371, AID1372, AID1373 …; assay type: functional, cell-based; settings: Homo sapiens
HeLa [13] = experiment: Cytotoxicity Assay in HeLa Cells. [Related pubchem assays: 1299, 1270, 1295, 1375, 1287, 1281, 1293, 1291, 1289, 1280, 465, 1364, 1282, 1372, 1365, 1370, 1367, 1366, 1266, 1269, 1373, 1292, 1290, 1371, 1283, 1271, 1294, 1374, 1368, 1369 ]; assay type: functional, cell-based; settings: Homo sapiens
[14] = Anti-cd3/cd28 induced T cell proliferation of mouse primary lymphocytes. [Related pubchem assays: 1299, 1270, 1295, 1375, 1287, 1281, 1293, 1291, 1289, 1280, 465, 1282, 1372, 1365, 1370, 1367, 1366, 1266, 1269, 1373, 1292, 1290, 1302, 1371, 1283, 1271, 1294, 1374, 1368, 1369 ]; assay type: functional, cell-based
HEK293 [15] = experiment: Cytotoxicity assay in HEK293 cells. [Related pubchem assays (depositor defined):AID1266, AID1269, AID1270, AID1271, AID1280, AID1281, AID1282, AID1283, AID1287, AID1289, AID1290, AID1291, AID1292, AID1293, AID1294, AID1295, AID1299, AID1302, AID1364, AID1365, AID1366, AID1367, AID1369, AID1370, AID1371, AID1372, AID1373, AID1374, AID1375, AID1384 …; assay type: functional, cell-based; settings: Homo sapiens
HeLa [16] = experiment: PMA/Ionomycin induced NF-kB luciferase in HeLa cells. [Related pubchem assays (depositor defined):AID1266, AID1269, AID1270, AID1271, AID1280, AID1281, AID1282, AID1283, AID1287, AID1289, AID1290, AID1291, AID1292, AID1293, AID1294, AID1295, AID1299, AID1302, AID1364, AID1365, AID1366, AID1367, AID1368, AID1369, AID1370, AID1371, AID1372, AID1373 …; assay type: functional, cell-based; settings: Homo sapiens
THP-1 = experiment: LPS induced NF-kB in THP.1 cells. [Related pubchem assays (depositor defined):AID1266, AID1269, AID1270, AID1271, AID1280, AID1281, AID1282, AID1283, AID1287, AID1289, AID1290, AID1291, AID1292, AID1293, AID1294, AID1295, AID1299, AID1302, AID1364, AID1365, AID1366, AID1367, AID1368, AID1370, AID1371, AID1372, AID1373, AID1374, AID1375, AID1384 …; assay type: functional, cell-based; settings: Homo sapiens
HEK293 [17] = experiment: TNF Induced NF-kB Luciferase in 293-NF-kB-Luc Stable Cells. [Related pubchem assays: 1266, 1299, 1269, 1373, 1292, 1290, 1302, 1371, 1283, 1270, 1295, 1271, 1375, 1294, 1374, 1281, 1293, 1291, 1289, 1280, 465, 1368, 1364, 1282, 1372, 1365, 1369, 1370, 1367, 1366 ]; assay type: functional, cell-based; settings: Homo sapiens
HEK293 [18] = experiment: cells; settings: Homo sapiens
HEK293 [19] = experiment: cells; settings: Homo sapiens; remark: listed apart in the source
HEK293 [20] = experiment: cells; settings: Homo sapiens; remark: listed apart in the source
HEK293 [21] = experiment: cells; settings: Homo sapiens; remark: listed apart in the source
HEK293 [22] = experiment: cells; settings: Homo sapiens; remark: listed apart in the source
HEK293 [23] = experiment: cells; settings: Homo sapiens; remark: listed apart in the source
HEK293 [24] = experiment: cells; settings: Homo sapiens; remark: listed apart in the source
HEK293 [25] = experiment: cells; settings: Homo sapiens; remark: listed apart in the source
HEK293 [26] = experiment: cells; settings: Homo sapiens; remark: listed apart in the source
HEK293 [27] = experiment: cells; settings: Homo sapiens; remark: listed apart in the source

SMILES: Cc1cc2nc(NCCCO)n(CC(=O)c3cc(C(C)(C)C)c(O)c(C(C)(C)C)c3)c2cc1C
- EC50 [1]: 2.81 µM (active)
- EC50 [2]: > 4 µM (not active)
- EC50 (MCF7 [3]): > 8 µM (inactive)
- EC50 [4]: > 4 µM (not active)
- EC50 (HEK293 [5]): 129 nM (active)
- EC50 [6]: > 8 µM (not active)
- EC50 (MCF7 [7]): > 8 µM (inactive)
- EC50 [8]: > 4 µM (not active)
- EC50 (Jurkat [9]): 2.57 µM (active)
- EC50 (MCF7 [10]): > 4 µM (inactive)
- EC50 (HEK293 [11]): 60.4 nM (active)
- EC50 (Jurkat [12]): > 8 µM (inactive)
- EC50 (PPC-1): > 4 µM (inactive)
- EC50 (HeLa [13]): > 4 µM (not active)
- EC50 [14]: > 4 µM (not active)
- EC50 (HEK293 [15]): > 8 µM (inactive)
- EC50 (HeLa [16]): > 4 µM (inactive)
- EC50 (THP-1): 5.74 µM (inactive)
- EC50 (HEK293 [17]): > 8 µM (not active)
- EC50 (HEK293 [18]): > 4 µM (not active)
- EC50 (HEK293 [19]): > 4 µM (not active)
- EC50 (HEK293 [20]): > 4 µM (not active)
- EC50 (HEK293 [21]): > 4 µM (inactive)
- EC50 (HEK293 [22]): > 4 µM (not active)
- EC50 (HEK293 [23]): > 4 µM (not active)
- EC50 (HEK293 [24]): 672 nM (active)
- EC50 (HEK293 [25]): > 4 µM (inactive)
- EC50 (HEK293 [26]): 230 nM (active)
- EC50 (HEK293 [27]): > 4 µM (not active)
